Tested on: 855422-203-R-J1-PDC complex spheroid viability
Assay: Anticancer human tumor 855422-203-R-J1-PDC patient-derived bladder carcinoma cell line growth inhibition
Details: for IC50: curve of first compound; for viability, T/C: stronger effect = lower value
Method in brief: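 Multicellular complex spheroids of tumor cells with human endothelial cells (HUVEC) and mesenchymal stem cells; the LSD1 inhibitor iadademstat was combined with standard-of-care or investigational agents. Top concentration at or near clinical Cmax, half-log dilutions; final DMSO ≤0.25%.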

[1] = second compound 0.1 µM, first compound 0.00316 µM
[2] = second compound 0.1 µM, first compound 0.01 µM
[3] = second compound 0.1 µM, first compound 0.0316 µM
[4] = second compound 0.1 µM, first compound 0.1 µM
[5] = second compound 0.316 µM, first compound 0.00316 µM
[6] = second compound 0.316 µM, first compound 0.01 µM
[7] = second compound 0.316 µM, first compound 0.0316 µM
[8] = second compound 0.316 µM, first compound 0.1 µM
[9] = second compound 1 µM, first compound 0.00316 µM
[10] = second compound 1 µM, first compound 0.01 µM
[11] = second compound 1 µM, first compound 0.0316 µM
[12] = second compound 1 µM, first compound 0.1 µM
[13] = second compound 3.16 µM, first compound 0.00316 µM
[14] = second compound 3.16 µM, first compound 0.01 µM
[15] = second compound 3.16 µM, first compound 0.0316 µM
[16] = second compound 3.16 µM, first compound 0.1 µM
[17] = second compound 10 µM, first compound 0.00316 µM
[18] = second compound 10 µM, first compound 0.01 µM
[19] = second compound 10 µM, first compound 0.0316 µM
[20] = second compound 10 µM, first compound 0.1 µM
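Also: drug exposure lasted 7 days starting on day 3 after seeding.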
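For viability, T/C in this document: luminescence viability as percent of DMSO vehicle wells = 100%.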

## COc1cc(Nc2ncc3c(n2)-c2ccc(Cl)cc2C(c2c(F)cccc2OC)=NC3)ccc1C(=O)O + NC1CCC(NC2CC2c2ccccc2)CC1
Second compound 0.1 µM
  IC50: > 1000 nM
Second compound 0.316 µM
  IC50: > 1000 nM
Second compound 1 µM
  IC50: > 1000 nM
Second compound 3.16 µM
  IC50: 892 nM
Second compound 10 µM
  IC50: > 1000 nM
[1]
  viability, T/C: 81%
[2]
  viability, T/C: 91.2%
[3]
  viability, T/C: 78.8%
[4]
  viability, T/C: 70.8%
Second compound 0.1 µM, first compound 0.316 µM
  viability, T/C: 64.5%
Second compound 0.1 µM, first compound 1 µM
  viability, T/C: 50.3%
[5]
  viability, T/C: 88.1%
[6]
  viability, T/C: 81.2%
[7]
  viability, T/C: 66.4%
[8]
  viability, T/C: 70.7%
Second compound 0.316 µM, first compound 0.316 µM
  viability, T/C: 64.2%
Second compound 0.316 µM, first compound 1 µM
  viability, T/C: 56.5%
[9]
  viability, T/C: 95.7%
[10]
  viability, T/C: 94.6%
[11]
  viability, T/C: 67.8%
[12]
  viability, T/C: 71.2%
Second compound 1 µM, first compound 0.316 µM
  viability, T/C: 61.5%
Second compound 1 µM, first compound 1 µM
  viability, T/C: 57%
[13]
  viability, T/C: 76.3%
[14]
  viability, T/C: 81.3%
[15]
  viability, T/C: 70.8%
[16]
  viability, T/C: 66.1%
Second compound 3.16 µM, first compound 0.316 µM
  viability, T/C: 59.4%
Second compound 3.16 µM, first compound 1 µM
  viability, T/C: 48.8%
[17]
  viability, T/C: 83.2%
[18]
  viability, T/C: 85.5%
[19]
  viability, T/C: 64.8%
[20]
  viability, T/C: 63%
Second compound 10 µM, first compound 0.316 µM
  viability, T/C: 57.7%
Second compound 10 µM, first compound 1 µM
  viability, T/C: 52.6%

## Cn1ncnc1C1c2n[nH]c(=O)c3cc(F)cc(c23)NC1c1ccc(F)cc1 (stereo not given) + NC1CCC(NC2CC2c2ccccc2)CC1
Second compound 0.1 µM
  IC50: > 100 nM
Second compound 0.316 µM
  IC50: > 100 nM
Second compound 1 µM
  IC50: > 100 nM
Second compound 3.16 µM
  IC50: > 100 nM
Second compound 10 µM
  IC50: > 100 nM
Second compound 0.1 µM, first compound 0.000316 µM
  viability, T/C: 104%
Second compound 0.1 µM, first compound 0.001 µM
  viability, T/C: 94.4%
[1]
  viability, T/C: 97.1%
[2]
  viability, T/C: 86.5%
[3]
  viability, T/C: 78%
[4]
  viability, T/C: 77.5%
Second compound 0.316 µM, first compound 0.000316 µM
  viability, T/C: 90%
Second compound 0.316 µM, first compound 0.001 µM
  viability, T/C: 92.4%
[5]
  viability, T/C: 84.3%
[6]
  viability, T/C: 83.9%
[7]
  viability, T/C: 90.7%
[8]
  viability, T/C: 82.3%
Second compound 1 µM, first compound 0.000316 µM
  viability, T/C: 88%
Second compound 1 µM, first compound 0.001 µM
  viability, T/C: 86.1%
[9]
  viability, T/C: 109%
[10]
  viability, T/C: 86.2%
[11]
  viability, T/C: 92.9%
[12]
  viability, T/C: 81.3%
Second compound 3.16 µM, first compound 0.000316 µM
  viability, T/C: 89.4%
Second compound 3.16 µM, first compound 0.001 µM
  viability, T/C: 97%
[13]
  viability, T/C: 109%
[14]
  viability, T/C: 78.2%
[15]
  viability, T/C: 77.4%
[16]
  viability, T/C: 74.8%
Second compound 10 µM, first compound 0.000316 µM
  viability, T/C: 82.7%
Second compound 10 µM, first compound 0.001 µM
  viability, T/C: 78.5%
[17]
  viability, T/C: 101%
[18]
  viability, T/C: 70.6%
[19]
  viability, T/C: 74.6%
[20]
  viability, T/C: 69.1%

## NS(=O)(=O)OCC1CC(n2ccc3c(NC4CCc5ccccc54)ncnc32)CC1O (stereo not given) + NC1CCC(NC2CC2c2ccccc2)CC1
Second compound 0.1 µM
  IC50: 708 nM
Second compound 0.316 µM
  IC50: 765 nM
Second compound 1 µM
  IC50: 747 nM
Second compound 3.16 µM
  IC50: 593 nM
Second compound 10 µM
  IC50: 469 nM
Second compound 0.1 µM, first compound 0.00949 µM
  viability, T/C: 102%
Second compound 0.1 µM, first compound 0.03 µM
  viability, T/C: 102%
Second compound 0.1 µM, first compound 0.0949 µM
  viability, T/C: 102%
Second compound 0.1 µM, first compound 0.3 µM
  viability, T/C: 88.6%
Second compound 0.1 µM, first compound 0.949 µM
  viability, T/C: 36.9%
Second compound 0.1 µM, first compound 3 µM
  viability, T/C: 14.8%
Second compound 0.316 µM, first compound 0.00949 µM
  viability, T/C: 100%
Second compound 0.316 µM, first compound 0.03 µM
  viability, T/C: 98.6%
Second compound 0.316 µM, first compound 0.0949 µM
  viability, T/C: 76.6%
Second compound 0.316 µM, first compound 0.3 µM
  viability, T/C: 87.4%
Second compound 0.316 µM, first compound 0.949 µM
  viability, T/C: 41.5%
Second compound 0.316 µM, first compound 3 µM
  viability, T/C: 13.9%
Second compound 1 µM, first compound 0.00949 µM
  viability, T/C: 105%
Second compound 1 µM, first compound 0.03 µM
  viability, T/C: 108%
Second compound 1 µM, first compound 0.0949 µM
  viability, T/C: 79.9%
Second compound 1 µM, first compound 0.3 µM
  viability, T/C: 83%
Second compound 1 µM, first compound 0.949 µM
  viability, T/C: 38.9%
Second compound 1 µM, first compound 3 µM
  viability, T/C: 17.4%
Second compound 3.16 µM, first compound 0.00949 µM
  viability, T/C: 95.3%
Second compound 3.16 µM, first compound 0.03 µM
  viability, T/C: 90%
Second compound 3.16 µM, first compound 0.0949 µM
  viability, T/C: 80%
Second compound 3.16 µM, first compound 0.3 µM
  viability, T/C: 74.5%
Second compound 3.16 µM, first compound 0.949 µM
  viability, T/C: 34.1%
Second compound 3.16 µM, first compound 3 µM
  viability, T/C: 9.44%
Second compound 10 µM, first compound 0.00949 µM
  viability, T/C: 86.9%
Second compound 10 µM, first compound 0.03 µM
  viability, T/C: 95.7%
Second compound 10 µM, first compound 0.0949 µM
  viability, T/C: 70.9%
Second compound 10 µM, first compound 0.3 µM
  viability, T/C: 69.9%
Second compound 10 µM, first compound 0.949 µM
  viability, T/C: 23.8%
Second compound 10 µM, first compound 3 µM
  viability, T/C: 10.1%

From PubChem BioAssay AID1918943 (Molecular Pharmacology Branch, DTP, NCI, 2023)
